Test results as given in ChEMBL document CHEMBL1201862, “PubChem BioAssay data set” (2004).
The source made the active and inactive calls.

Columns and labels:
[1] = Luminescence Cell-Based Dose Retest to Confirm Inhibitors of Cancer Stem Cells. [Related pubchem assays (depositor defined):AID2717, AID2721]; assay type: functional; details: Homo sapiens
[2] = AlphaScreen signal interference compounds, dose response, artefact control for ARNT-TACC3 interaction inhibitor project, biochemical, luminescence, cherry-pick (AID 651705); assay type: functional;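 also: AlphaScreen bead proximity signal that flags compounds interfering with the detection technology; potency reflects signal decrease which marks the compound as an assay artifact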
[3] = Fluorescence-based cell-based high throughput dose response assay for inhibitors of the interaction of nucleotide-binding oligomerization domain containing 2 (NOD2) and the receptor-interacting serine-threonine kinase 2 (RIPK2).; assay type: functional; details: Homo sapiens
Beta Lactamase = Beta Lactamase (Pseudomonas aeruginosa, UniProt Q932Y6); test: beta-lactamase reporter inhibitor potency, dose response, artefact control for NOD2-RIPK2 interaction inhibitor project, BLA reporter cells, FRET fluorescence (AID 651552); assay type: functional, cell-based
Kallikrein-7 = Kallikrein-7 (Homo sapiens, UniProt P49862); test: Fluorescence Intensity-based biochemical primary high throughput dose response assay to identify activators of kallikrein-7 (K7) zymogen.
[4] = molecular target: Luciferin 4-monooxygenase (Photinus pyralis, UniProt P08659); test: firefly luciferase enzyme inhibitors, dose response, biochemical, luminescence (AID 1891)
[5] = Luminescence Cell-Based Dose Confirmation HTS to Identify Inhibitors of Platelet Dense Granule Release. [Related pubchem assays: 1663 (Primary HTS), 1678 (Summary of Project)]; assay type: functional
Protein Tat = Protein Tat (Human immunodeficiency virus type 1 group M subtype B (isolate HXB2)(HIV-1), UniProt P04608); assay type: functional;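 also: tat binding to TAR RNA read out by fluorescence polarization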
[6] = test system: Streptococcus sp. 'group A'; test: growth inhibition of control SK(-) GAS strain, dose response, counter-screen for streptokinase expression inhibitor project, luminescence, kanamycin, BacTiterGlo, confirmation (AID 1900); assay type: functional, organism-based
Streptococcus = test: Group A Streptococcus viability loss, dose response, counter-screen for streptokinase expression inhibitor project, luminescence, BacTiterGlo (AID 1915); assay type: functional, organism-based;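 also: potency for reduction of bacterial viability or growth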
INS1 = test: beta cell apoptosis inhibitors, cytokine rescue, dose response, luminescence, retest (AID 449756); assay type: functional, cell-based; details: Rattus norvegicus;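 also: cell death triggered by IL-1 beta plus TNF-alpha plus IFN-gamma mixture; protective hits raise ATP signal compared with cytokine alone wells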
[7] = Shn3 3'UTR reporter inhibitors, dose response, cell-based, Clone20 osteoblasts, firefly luciferase, cherry-picked (AID 624132); assay type: functional;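 also: firefly luciferase luminescence from reporter carrying the Shn3 3'UTR in osteoblasts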
[8] = HepG2 cell cytotoxicity, dose response, cytotoxicity control for Shn3 inhibitor project, CellTiter-Glo, cherry-picked (AID 624134); assay type: functional, cell-based
[9] = control 3'UTR Renilla luciferase suppression, dose response, counter-screen for Shn3 inhibitor project, cell-based, Clone20-Shn3RL, cherry-picked (AID 624133); assay type: functional
[10] = molecular target: COUP transcription factor 2 (Homo sapiens, UniProt P24468); test: Luminescence-based cell-based high throughput dose response assay to identify inhibitors of COUP-TFII (NR2F2).; assay type: functional;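 also: HEK293 cells transiently cotransfected with COUP-TFII expression vector and reporter; luciferase reporter luminescence driven by COUP-TFII from the pX2-168 reporter plasmid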
Paired box protein Pax-8 = Paired box protein Pax-8 (Homo sapiens, UniProt Q06710); test: inhibitors of PAX8-driven TPO luciferase reporter, dose response, RMG-I cells, cherry-pick (AID 687027); assay type: functional, cell-based;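 also: luciferase reporter driven by Pax8 target thyroperoxidase promoter measured by SteadyGlo luminescence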
[11] = NIH:OVCAR-3 ovarian cancer cell cytotoxicity, dose response, PAX8 inhibitor project, plate reader, dry powder samples (AID 743044); assay type: functional, cell-based
[12] = IGROV1 ovarian cancer cell cytotoxicity, dose response, PAX8 inhibitor project, plate reader, dry powder samples (AID 743043); assay type: functional, cell-based; details: IGROV-1
[13] = ADAM10 inhibitors, peptide cleavage, dose response, biochemical, QFRET (AID 743254);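 also: ADAM10 enzyme with the DM2 quenched FRET peptide as substrate; EDANS fluorescence gain as the protease cuts the substrate; inhibitor potency against ADAM10 proteolytic activity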
[14] = molecular target: Disintegrin and metalloproteinase domain-containing protein 17 (Homo sapiens, UniProt P78536); test: ADAM17 protease inhibitors, dose response, counter-screen for ADAM10 exosite inhibitor project, biochemical, quenched FRET substrate (AID 743253)
[15] = P. falciparum Dd2 growth inhibitors, dose response, SYBR Green, dry powder samples, set 9 (AID 1159568); assay type: functional, cell-based
[16] = molecular target: T1, Oxysterols receptor LXR-beta (Homo sapiens, UniProt P55055); assay type: functional, cell-based
T1 sequence (P55055 whole entry): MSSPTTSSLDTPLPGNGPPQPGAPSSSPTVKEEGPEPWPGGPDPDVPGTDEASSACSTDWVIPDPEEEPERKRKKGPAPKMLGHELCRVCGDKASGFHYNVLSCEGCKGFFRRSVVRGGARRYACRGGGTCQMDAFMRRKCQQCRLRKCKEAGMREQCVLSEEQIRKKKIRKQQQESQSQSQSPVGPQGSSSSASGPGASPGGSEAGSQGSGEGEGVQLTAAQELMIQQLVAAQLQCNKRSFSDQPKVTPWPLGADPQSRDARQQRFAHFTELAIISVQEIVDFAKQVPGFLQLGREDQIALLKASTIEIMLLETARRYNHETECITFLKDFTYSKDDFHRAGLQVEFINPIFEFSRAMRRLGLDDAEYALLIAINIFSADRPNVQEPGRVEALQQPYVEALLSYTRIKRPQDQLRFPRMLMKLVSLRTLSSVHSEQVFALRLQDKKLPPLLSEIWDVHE

[17] = molecular target: T2, Probable nicotinate-nucleotide adenylyltransferase (Staphylococcus aureus (strain N315), UniProt P65502); assay type: functional, Staphylococcus aureus subsp. aureus N315;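 as to IC50 Mean: confirmatory dose-response retesting of NadD inhibitor hits first found in an ultra-high-throughput screen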
[18] = molecular target: T2, Probable nicotinate-nucleotide adenylyltransferase; assay type: functional, Staphylococcus aureus subsp. aureus N315; details: read-out: IC50_Mean
[19] = molecular target: T1, Oxysterols receptor LXR-beta; assay type: functional, cell-based; remark: listed apart in the source
[20] = molecular target: Bifunctional protein GlmU (Mycobacterium tuberculosis, UniProt P9WMN3); test: Inhibitors of Mycobacterial Glucosamine-1-phosphate acetyl transferase (GlmU). Secondary screen.; set-up: species or system Mycobacterium tuberculosis H37Rv
[21] = molecular target: T3, Long-chain-fatty-acid--AMP ligase FadD28 (Mycobacterium tuberculosis, UniProt P9WQ59); test: Fluorescence polarization aasay to screen for inhibitors that compete for the binding of FadD28 to a bisubstrate Measured in Biochemical System Using Plate Reader - 2147-01_Inhibitor_Dose_CherryPick_Activity.; assay type: functional, Mycobacterium tuberculosis H37Rv
T3 sequence (P9WQ59 whole entry): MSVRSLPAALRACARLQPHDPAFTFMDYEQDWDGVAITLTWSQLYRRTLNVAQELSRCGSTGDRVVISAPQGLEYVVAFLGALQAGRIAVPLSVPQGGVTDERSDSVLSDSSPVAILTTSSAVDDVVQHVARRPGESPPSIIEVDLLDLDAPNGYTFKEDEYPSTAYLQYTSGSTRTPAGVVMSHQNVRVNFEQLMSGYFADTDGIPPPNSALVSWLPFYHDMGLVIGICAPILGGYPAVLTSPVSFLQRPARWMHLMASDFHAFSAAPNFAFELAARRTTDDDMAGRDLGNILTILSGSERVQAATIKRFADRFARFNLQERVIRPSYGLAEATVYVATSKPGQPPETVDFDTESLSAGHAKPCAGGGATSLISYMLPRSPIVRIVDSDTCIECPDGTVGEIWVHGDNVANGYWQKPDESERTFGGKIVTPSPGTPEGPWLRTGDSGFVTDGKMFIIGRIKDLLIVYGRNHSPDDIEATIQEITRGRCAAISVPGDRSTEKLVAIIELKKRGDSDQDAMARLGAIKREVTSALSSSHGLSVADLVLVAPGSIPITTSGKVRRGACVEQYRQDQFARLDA

Kallikrein-7, sequence (P49862 whole entry): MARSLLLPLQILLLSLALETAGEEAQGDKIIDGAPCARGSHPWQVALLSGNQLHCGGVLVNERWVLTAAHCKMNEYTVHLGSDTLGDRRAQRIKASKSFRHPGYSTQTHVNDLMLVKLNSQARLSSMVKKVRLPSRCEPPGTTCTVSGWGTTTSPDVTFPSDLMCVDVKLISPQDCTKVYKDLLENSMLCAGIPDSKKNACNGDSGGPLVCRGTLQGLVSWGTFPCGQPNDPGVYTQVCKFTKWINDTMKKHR
T2 sequence (P65502 whole entry): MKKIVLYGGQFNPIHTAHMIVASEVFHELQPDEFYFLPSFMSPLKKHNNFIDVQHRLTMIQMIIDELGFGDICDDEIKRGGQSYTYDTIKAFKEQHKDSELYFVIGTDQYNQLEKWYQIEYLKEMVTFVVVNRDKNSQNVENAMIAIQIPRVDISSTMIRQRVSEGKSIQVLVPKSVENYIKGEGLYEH
Disintegrin and metalloproteinase domain-containing protein 17, sequence (P78536 whole entry, the tested form may be a part): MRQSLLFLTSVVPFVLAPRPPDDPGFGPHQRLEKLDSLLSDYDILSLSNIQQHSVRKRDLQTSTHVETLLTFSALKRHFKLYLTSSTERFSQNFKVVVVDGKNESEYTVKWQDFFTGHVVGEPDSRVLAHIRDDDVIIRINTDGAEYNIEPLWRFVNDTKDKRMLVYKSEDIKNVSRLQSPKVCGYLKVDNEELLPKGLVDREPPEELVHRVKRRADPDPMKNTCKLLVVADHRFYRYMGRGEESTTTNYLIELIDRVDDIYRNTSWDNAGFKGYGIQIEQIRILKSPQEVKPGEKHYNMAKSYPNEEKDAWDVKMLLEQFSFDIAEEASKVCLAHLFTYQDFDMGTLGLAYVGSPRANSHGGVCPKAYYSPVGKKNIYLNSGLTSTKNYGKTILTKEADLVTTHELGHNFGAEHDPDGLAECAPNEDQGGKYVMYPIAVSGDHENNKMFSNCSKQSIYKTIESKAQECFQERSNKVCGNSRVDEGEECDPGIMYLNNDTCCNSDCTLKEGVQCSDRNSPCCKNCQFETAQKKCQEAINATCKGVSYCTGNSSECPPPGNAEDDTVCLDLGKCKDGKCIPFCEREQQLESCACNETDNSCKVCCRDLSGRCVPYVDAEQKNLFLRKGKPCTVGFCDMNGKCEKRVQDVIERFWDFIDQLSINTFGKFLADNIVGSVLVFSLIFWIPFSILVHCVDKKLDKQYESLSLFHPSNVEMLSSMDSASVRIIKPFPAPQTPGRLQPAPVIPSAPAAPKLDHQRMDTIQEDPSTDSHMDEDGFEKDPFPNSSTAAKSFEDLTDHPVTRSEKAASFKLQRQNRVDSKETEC
Luciferin 4-monooxygenase, sequence (P08659 whole entry): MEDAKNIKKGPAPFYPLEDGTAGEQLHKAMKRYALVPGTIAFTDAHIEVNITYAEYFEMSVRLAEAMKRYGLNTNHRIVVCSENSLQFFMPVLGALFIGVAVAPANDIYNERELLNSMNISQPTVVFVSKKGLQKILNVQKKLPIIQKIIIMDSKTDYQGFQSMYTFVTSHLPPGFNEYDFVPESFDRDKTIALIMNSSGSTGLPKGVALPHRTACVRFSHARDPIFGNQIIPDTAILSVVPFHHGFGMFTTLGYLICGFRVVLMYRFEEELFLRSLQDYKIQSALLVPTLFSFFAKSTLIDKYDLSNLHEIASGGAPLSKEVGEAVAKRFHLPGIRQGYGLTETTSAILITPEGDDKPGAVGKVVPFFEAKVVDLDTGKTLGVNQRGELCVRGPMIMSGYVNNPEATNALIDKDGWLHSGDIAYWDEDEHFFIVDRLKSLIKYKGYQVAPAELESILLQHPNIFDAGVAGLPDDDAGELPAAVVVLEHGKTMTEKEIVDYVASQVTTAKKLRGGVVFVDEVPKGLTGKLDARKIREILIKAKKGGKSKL
Paired box protein Pax-8, sequence (Q06710 whole entry): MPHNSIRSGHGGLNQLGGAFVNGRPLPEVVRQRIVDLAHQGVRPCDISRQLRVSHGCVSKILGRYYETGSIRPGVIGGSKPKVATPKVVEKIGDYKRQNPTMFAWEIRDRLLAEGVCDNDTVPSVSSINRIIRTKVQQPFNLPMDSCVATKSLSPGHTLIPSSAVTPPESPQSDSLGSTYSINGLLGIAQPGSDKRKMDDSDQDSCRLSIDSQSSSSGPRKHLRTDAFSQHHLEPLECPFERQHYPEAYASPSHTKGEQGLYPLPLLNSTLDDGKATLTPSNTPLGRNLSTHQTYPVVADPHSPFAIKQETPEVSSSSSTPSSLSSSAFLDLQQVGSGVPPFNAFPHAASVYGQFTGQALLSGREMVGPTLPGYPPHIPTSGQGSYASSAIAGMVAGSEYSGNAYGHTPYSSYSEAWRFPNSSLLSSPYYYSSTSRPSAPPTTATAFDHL
Bifunctional protein GlmU, sequence (P9WMN3 whole entry): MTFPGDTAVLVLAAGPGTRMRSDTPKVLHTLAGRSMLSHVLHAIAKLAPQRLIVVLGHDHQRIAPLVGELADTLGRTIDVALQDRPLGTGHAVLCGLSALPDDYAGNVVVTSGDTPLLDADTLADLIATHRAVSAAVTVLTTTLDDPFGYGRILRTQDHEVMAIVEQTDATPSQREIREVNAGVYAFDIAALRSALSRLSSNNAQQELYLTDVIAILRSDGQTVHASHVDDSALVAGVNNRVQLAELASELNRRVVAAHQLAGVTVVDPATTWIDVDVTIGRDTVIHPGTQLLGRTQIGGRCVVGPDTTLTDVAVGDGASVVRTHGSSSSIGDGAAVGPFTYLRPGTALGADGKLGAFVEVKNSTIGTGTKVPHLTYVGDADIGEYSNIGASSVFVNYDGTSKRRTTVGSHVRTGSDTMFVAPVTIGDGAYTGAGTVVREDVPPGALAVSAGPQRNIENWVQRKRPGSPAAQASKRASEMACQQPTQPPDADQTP
Beta Lactamase, sequence (Q932Y6 whole entry): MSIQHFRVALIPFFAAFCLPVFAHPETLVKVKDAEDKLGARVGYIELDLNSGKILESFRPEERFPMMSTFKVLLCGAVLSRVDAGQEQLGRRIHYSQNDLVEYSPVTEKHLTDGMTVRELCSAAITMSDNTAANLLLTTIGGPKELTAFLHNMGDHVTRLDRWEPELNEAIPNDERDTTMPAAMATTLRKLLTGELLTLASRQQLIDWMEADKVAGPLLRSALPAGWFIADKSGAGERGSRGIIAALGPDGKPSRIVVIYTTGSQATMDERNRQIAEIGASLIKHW
COUP transcription factor 2, sequence (P24468 whole entry): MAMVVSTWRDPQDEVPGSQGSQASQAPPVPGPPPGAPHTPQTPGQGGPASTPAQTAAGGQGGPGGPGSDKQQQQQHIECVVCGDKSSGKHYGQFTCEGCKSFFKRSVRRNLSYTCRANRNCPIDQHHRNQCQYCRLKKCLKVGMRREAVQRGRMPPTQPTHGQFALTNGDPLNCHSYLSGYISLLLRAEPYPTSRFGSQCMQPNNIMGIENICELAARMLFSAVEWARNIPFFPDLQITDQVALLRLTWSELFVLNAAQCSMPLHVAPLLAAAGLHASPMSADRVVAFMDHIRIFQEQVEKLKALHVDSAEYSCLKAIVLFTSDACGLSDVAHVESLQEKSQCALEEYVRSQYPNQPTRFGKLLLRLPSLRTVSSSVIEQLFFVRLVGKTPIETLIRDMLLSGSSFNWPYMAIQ
Protein Tat, sequence (P04608 whole entry): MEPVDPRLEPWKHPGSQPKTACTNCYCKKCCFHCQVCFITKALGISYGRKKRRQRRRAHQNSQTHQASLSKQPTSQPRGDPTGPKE

SMILES: O=C(NC12CC3CC(CC(C3)C1)C2)c1ccc(-c2ccccc2Cl)o1
- AC50 [1]: 3.35 µM (active)
- AC50 [2]: 80.2 µM (active)

SMILES: O=C1N/C(=C/c2ccc(N3CCOCC3)o2)C(=O)N1c1cccc(Cl)c1
- IC50 [3]: 7.65 µM (active)
- IC50 (Beta Lactamase): 21.3 µM (inactive)

SMILES: COCCN1Cc2cc(O)n3c(nc4ccccc43)c2C1=N
- EC50 (Kallikrein-7): > 69.5 µM (inactive)

SMILES: O=C(NC1CCCC1)C(c1ccco1)N(Cc1ccccc1)C(=O)c1csnn1 (centres undefined)
- EC50 [4]: > 112 µM (not active)
- EC50 [5]: > 112 µM (not active)
- IC50 (Protein Tat): > 100 µM (active)

SMILES: CCOC(=O)c1cnc(-n2nc(C)cc2C)nc1NC1CCCC1
- EC50 [6]: 2.69 µM (active)
- EC50 (Streptococcus): 5.64 µM (active)
- AC50 (INS1): 2.73 µM (active)
- AC50 [7]: 4.4 µM (active)
- AC50 [8]: 8.6 µM (active)
- AC50 [9]: 7.1 µM (active)
- IC50 [10]: 7.91 µM (active)

SMILES: Cc1ccc(S(=O)(=O)Nc2ccc3c(c2)C(=O)N([C@H](C)CO)C[C@@H](C)[C@@H](CN(C)Cc2ccc(C(F)(F)F)cc2)OCCCC[C@H](C)O3)cc1
- AC50 (Paired box protein Pax-8): 4.18 µM (active)
- AC50 [11]: 18.1 µM (active)
- AC50 [12]: 43.5 µM (active)

SMILES: Cc1ccc(S(=O)(=O)N2CCC(=O)N2)cc1
- IC50 [13]: > 69.6 µM (inactive)
- IC50 [14]: > 69.6 µM (inactive)

SMILES: C[C@H](CO)N1C[C@H](C)[C@H](CN(C)S(=O)(=O)c2ccc(F)cc2)OCCCC[C@H](C)Oc2ccc(N(C)C)cc2C1=O
- AC50 [15]: 5.45 µM (active)

SMILES: Cc1cc2nc(-c3cccnc3SCC(=O)NCc3ccco3)[nH]c2cc1C
- EC50 [16]: > 67.6 µM (inactive)

SMILES: Nc1nc(COc2ccccc2C=O)nc(Nc2ccccc2)n1
- IC50 [17]: 36.7 µM (active)
- IC50 [18]: 52.1 µM (active)

SMILES: CCOC(=O)c1cnn2c(C(F)(F)F)cc(-c3cn(C)nc3C)nc12
- EC50 (Kallikrein-7): 33.2 µM (inactive)

SMILES: O=[N+]([O-])c1cccc(/N=C/C=C(\O)c2cccs2)c1
- EC50 [19]: > 67.5 µM (inactive)
- EC50 (cells): > 67.5 µM (inactive)

SMILES: Cc1cc(N)n(-c2ccc(Oc3ccccc3)c(S(=O)(=O)O)c2)n1
- IC50 [20]: 123 µM (active)
- AC50 [21]: > 100 µM (inactive)
